Experimental data from US6344457B1, “Amino acid derivatives inhibiting extracellular matrix metalloproteinase and TNF alpha release” (Chiesi Farmaceutici S.p.A., priority 1997, dated 2002).
Like-named read-outs stand apart in the source and are kept apart here.

What was measured:
[1] = Determination of bioavailability (blood levels, ex-vivo bioassay); format: in vivo; settings: mice; for concentration at 40 min / concentration at 10 min / concentration at 20 min / concentration at 1 h / concentration at 24 h: mouse, blood, 50 mg/kg
Description: The compounds of this invention were administered i.p. or p.o. between 1 and 50 mg/kg to mice: the blood levels then were determined by an ex-vivo bioassay according to Wang X. et al. (Cancer Res., 54, 4726-4728, 1994). The introduction of an OH group systematically increases the bioavailability of the products.

[2] = system: release of TNF from the peritoneal macrophages of mice stimulated by LPS; experiment: Inhibition of the production of TNF in vitro; format: cell-based; settings: Peritoneal macrophage; mouse peritoneal macrophages, LPS 100 ng/ml; read-out: C150 (μM) TNF
Description: The capacity of the compounds according to this invention to inhibit the release of TNF was determined from the peritoneal macrophages of mice stimulated by LPS (Lang, F., Robert, […], Petit, J. Y., J. Pharmacol. Exp. Ther., 275, 171-176, 1995). After an adhesion phase of 2 hours, the cells were treated for 1 hour with the compound to be tested at concentrations ranging between 10^-6 to 10^-9 M (the inhibitor is dissolved in DMSO at 10^-2 M, then at 5.10^-3 M in RPMI 1640 with 5% SVF, then diluted successively by tenths in the same medium), then stimulated by the addition of LPS (100 ng/ml in final concentration). Three hours later, the biological activity of the TNF in the supernatants was determined by a cytotoxicity test using the murine stock L929 in accordance with the operating procedure described by Band, G., Lin, […]., Evans, C. H. (Bioch. Biophys. Acta, 1134, 309-318, 1982). The pg/ml concentration of the TNF of the samples was determined from a murine αTNF standard curve, thus making it possible to define the inhibiting concentration […] of the compounds studied.

[3] = biological target: 92 kDa gelatinase of human origin (Homo sapiens, UniProt P14780); experiment: Activity on gelatinase, radiomarked gelatin; format: biochemical; settings: test performed with radiomarked gelatin; read-out: C150 (nM) gelatinase 92 kDa*
Sequence of 92 kDa gelatinase of human origin (P14780 94-707): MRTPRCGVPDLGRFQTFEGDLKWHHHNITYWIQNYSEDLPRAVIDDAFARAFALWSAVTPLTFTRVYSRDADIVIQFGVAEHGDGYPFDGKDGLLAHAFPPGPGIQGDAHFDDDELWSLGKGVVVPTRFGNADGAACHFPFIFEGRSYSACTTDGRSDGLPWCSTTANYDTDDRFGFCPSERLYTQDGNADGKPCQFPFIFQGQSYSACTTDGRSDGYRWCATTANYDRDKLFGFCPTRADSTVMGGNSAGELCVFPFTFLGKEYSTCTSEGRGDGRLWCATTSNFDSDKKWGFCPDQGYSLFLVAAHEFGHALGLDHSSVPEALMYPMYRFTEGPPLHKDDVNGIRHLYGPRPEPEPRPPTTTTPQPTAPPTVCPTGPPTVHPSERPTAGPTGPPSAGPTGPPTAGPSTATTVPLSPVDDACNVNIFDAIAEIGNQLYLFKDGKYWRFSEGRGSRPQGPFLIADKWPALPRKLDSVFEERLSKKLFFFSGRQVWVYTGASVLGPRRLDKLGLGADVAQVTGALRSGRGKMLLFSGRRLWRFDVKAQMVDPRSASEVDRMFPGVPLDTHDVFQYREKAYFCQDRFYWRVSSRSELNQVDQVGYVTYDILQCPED
Description: The anti-gelatinase activity of the compounds according to the invention also was determined on 92 kDa or 72 kDa gelatinase of human origin, in accordance with the operating mode described by Harris, E. D., Krane, S. M.; (Biochem. Biophys. Acta, 258, 566-576, 1972).
The gelatinase was incubated at 37° C. for 16 hours with radiomarked gelatin, and its activity was determined by the release of the soluble peptides produced by the enzymatic breakdown of the gelatin. The inhibiting concentration C150 for each compound was determined by measurement of the activity of the enzyme in the presence of the inhibitor at a concentration ranging between 10^−7 and 10^−12 M (the inhibitor is dissolved in the same manner as for collagenase).

[4] = biological target: T1, collagenase of the human monocytic stock U937 (Homo sapiens, UniProt P03956); experiment: Activity on collagenase; format: biochemical; settings: radiomarked collagen, 27° C., 16 hours; read-out: C150 (nM) collagenase
T1 construct: the collagenase of the human monocytic stock U937; endogenous in cells; host or cells: U937 human monocytic cell line
T1 sequence (P03956 100-469): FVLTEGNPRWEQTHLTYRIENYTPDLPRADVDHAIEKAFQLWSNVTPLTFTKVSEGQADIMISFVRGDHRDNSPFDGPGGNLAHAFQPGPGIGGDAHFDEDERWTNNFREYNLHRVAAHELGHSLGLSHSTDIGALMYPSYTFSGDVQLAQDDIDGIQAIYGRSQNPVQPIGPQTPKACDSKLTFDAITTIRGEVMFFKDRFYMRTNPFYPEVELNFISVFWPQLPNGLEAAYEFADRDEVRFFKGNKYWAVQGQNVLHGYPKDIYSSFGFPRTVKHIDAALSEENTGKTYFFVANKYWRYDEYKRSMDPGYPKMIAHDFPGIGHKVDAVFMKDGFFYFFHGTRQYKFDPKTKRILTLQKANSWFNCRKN
Description: The collagenase was incubated at 27° C. for 16 hours with radiomarked collagen, and its activity was determined by the release of soluble peptides produced by the enzymatic breakdown of the collagen. The inhibiting concentration C150 for each compound was determined by measurement of the activity of the enzyme in the presence of the inhibitor at a concentration ranging between 10^−7 and 10^−12 M (the inhibitor is dissolved at a concentration of 10^−2 M in DMSO, then diluted successively by tenths in the buffer: Tris, HCl 150 mM, pH 7.5; NaCl 0.15 M; CaCl2 10 mM).

[5] = ip, 50 mg/kg i.p., read-out: blood level, I.p. method, 40′
[6] = ip, 50 mg/kg i.p., read-out: blood level, I.p. method, 10′
[7] = ip, 50 mg/kg i.p., read-out: blood level, I.p. method, 20′
[8] = po, 50 mg/kg p.o., read-out: blood level, P.o. method, 10′
[9] = po, 50 mg/kg p.o., read-out: blood level, P.o. method, 20′
[10] = po, 50 mg/kg p.o., read-out: blood level, P.o. method, 1 h

Row | blood level, I.p. method, 10′ ([1]; 50 mg/kg i.p.) | blood level, I.p. method, 20′ ([1]; 50 mg/kg i.p.) | blood level, P.o. method, 10′ ([1]; 50 mg/kg p.o.) | blood level, P.o. method, 20′ ([1]; 50 mg/kg p.o.) | IC50 [2] | IC50 [3] | IC50 [4] | Molecule | further results
1 | 30000 ng/mL | 27000 ng/mL | 2300 ng/mL | 1200 ng/mL | – | – | – | CC(C)C[C@@](O)(C(=O)N[C@@H](Cc1ccc(Cl)cc1)C(=O)NCCN1CCOCC1)[C@H](C)C(=O)NO [drawing 115] | blood level, P.o. method, 24 h ([1]; 50 mg/kg p.o., 24 h): 900 ng/mL; concentration at 40 min [1, 5]: 18000 ng/mL
2 | – | – | – | – | 0.14 µM | – | – | CNC(=O)[C@@H](NC(=O)[C@H](CC(C)C)[C@H](O)C(=O)NO)C(C)(C)C [reference compound] | –
3 | – | – | – | – | – | 34 nM | – | N-2-(S)[(S)-hydroxy-(S)hydroxycarbamoylmethyl)-2(S)-hydroxy-4-methyl]pentanoyl-o-methyl-3-methyl-(S) valine N-methylamide [Example 34] | –

Second part, the molecule before the results:

Row | Molecule | blood level, I.p. method, 10′ ([1]; 50 mg/kg i.p.) | blood level, I.p. method, 20′ ([1]; 50 mg/kg i.p.) | blood level, P.o. method, 10′ ([1]; 50 mg/kg p.o.) | blood level, P.o. method, 20′ ([1]; 50 mg/kg p.o.) | IC50 [2] | IC50 [3] | IC50 [4] | further results
4 | CC(C)C[C@@](O)(C(=O)N[C@@H](Cc1ccc(Cl)cc1)C(=O)NCC/C(N)=N/O)[C@H](C)C(=O)NO [Example 28, N-2(S)[1(S) hydroxycarbamoyl-1 ethyl]-2(S)hydroxy-4-methylpentanoyl L-4-chlorophenylalanine N-oximino-2-amino-2-ethylamide] | – | – | – | – | – | 1.6 nM | 26 nM | –
5 | CNC(=O)[C@H](Cc1ccc(OC)cc1)NC(=O)[C@](O)(CC(C)C)[C@H](C)C(=O)NO [drawing 114] | – | – | – | – | – | – | – | concentration at 10 min [1, 6]: 23000 ng/mL; concentration at 20 min [1, 7]: 8700 ng/mL; concentration at 1 h ([1]; ip, 50 mg/kg i.p., read-out: blood level, I.p. method, 1 h): 770 ng/mL; concentration at 24 h ([1]; ip, 50 mg/kg i.p., 24 h, read-out: blood level, I.p. method, 24 h): < 500 ng/mL; concentration at 10 min [1, 8]: 4200 ng/mL; concentration at 20 min [1, 9]: 2100 ng/mL; concentration at 1 h [1, 10]: 580 ng/mL; concentration at 24 h ([1]; po, 50 mg/kg p.o., 24 h, read-out: blood level, P.o. method, 24 h): < 500 ng/mL
6 | CNC(=O)[C@H](Cc1ccc(Cl)c(Cl)c1)NC(=O)[C@@](O)(CS)CC(C)C [Example 37] | – | – | – | – | 2 µM | 70 nM | > 1000 nM | –
7 | CC(C)C[C@@](O)(C(=O)N[C@@H](Cc1ccc(Cl)c(Cl)c1)C(=O)NCCN1CCOCC1)[C@H](C)C(=O)NO [drawing 119] | 6000 ng/mL | 5000 ng/mL | 1250 ng/mL | 800 ng/mL | – | – | – | blood level, I.p. method, 40′ ([1]; 50 mg/kg i.p.): 1800 ng/mL; concentration at 1 h [1, 10]: 450 ng/mL
8 | CNC(=O)[C@H](Cc1ccc(OC)cc1)NC(=O)[C@H](CC(C)C)[C@H](C)C(=O)NO [drawing 113] | – | – | – | – | – | – | – | concentration at 10 min [1, 6]: 200 ng/mL; concentration at 20 min [1, 7]: < 100 ng/mL; concentration at 40 min [1, 5]: < 100 ng/mL; concentration at 10 min [1, 8]: < 100 ng/mL; concentration at 20 min [1, 9]: < 100 ng/mL; concentration at 40 min ([1]; po, 50 mg/kg p.o., read-out: blood level, P.o. method, 40′): < 100 ng/mL
9 | CC(C)C[C@@](O)(C(=O)N[C@@H](Cc1ccc(Cl)c(Cl)c1)C(=O)NCCN1CCOCC1)[C@H](C)C(=O)NO [drawing 118] | 700 ng/mL | 500 ng/mL | 100 ng/mL | 100 ng/mL | – | – | – | blood level, I.p. method, 40′ ([1]; 50 mg/kg i.p.): 100 ng/mL
10 | CNC(=O)[C@H](Cc1ccc(OC)cc1)NC(=O)[C@](O)(CC(C)C)[C@H](C)S [Example 36, N-2(R)-[(1-thioethyl)] 2(R) hydroxy 4-methyl pentanoyl-o-methyl-L-tyrosine methylamide] | – | – | – | – | 3 µM | 23 nM | 500 nM | –
